Data on 16 compounds can be found in US4413005A, “Carbamate derivatives and insecticidal, miticidal or nematocidal compositions containing the same” (priority 1981, dated 1983).

Data set [1] in a line: Acute oral toxicity in male mice, LD50 by Litchfield-Wilcoxon method (Test Example 5). The settings on record: mouse, in vivo, mortality on the seventh day. The method, then: Compounds of this invention were tested on male mice for acute toxicity by oral administration.
Data set [2] deals with tobacco cutworm (Spodoptera litura). Briefly: Mortality of third-instar larvae of tobacco cutworm on cabbage (Test Example 1). It is filed as in vivo. The conditions noted are these: 72 h. The method, then:
Ten third-instar larvae of tobacco cutworm (Spodoptera litura) were placed on a cabbage (one-month-old seedling) planted in a pot, and a 50% emulsion of the compound to be tested was diluted to a specified concentration and applied to the leaves of the plant to fully wet them. The test compound of each specified concentration was tested on two pots.

Data set [3] has as its system house fly (Musca domestica). Put plainly: Local application to house fly, LD50 by Probit method (Test Example 4). The class given is in vivo. The settings on record: topical. Here is the method:
The compound to be tested was dissolved in a predetermined amount of acetone. The solution was diluted to various concentrations and locally applied to house fly (Musca domestica).

In data set [4] the test system is green rice leafhopper (Nephotettix cincticeps). Briefly: Mortality of female adults of green rice leafhopper on paddy rice (Test Example 2). It is filed as in vivo. The conditions noted are these: 72 h. Here is the method:
An emulsion of specified concentration was prepared from a 50% wettable powder of the compound to be tested and applied to the leaves of paddy rice (one-month-old seedlings) planted in a pot to fully wet the leaves. After the emulsion had been dried, the pot was covered with a net cage, into which 10 female adults of green rice leafhopper (Nephotettix cincticeps) were released. The compound of each specified concentration was tested on two pots.

The structures appear in SMILES notation. Where two headings read alike, the source gives them in different places.

In data set [1], `CCCCOC(=O)CCN(SN(C)C(=O)Oc1cccc2c1OC(C)(C)C2)C(C)C` [Example 25] displayed an LD50 at 168 h of 123 mg/kg. In data set [2], the mortality at 500 ppm stood at 75%, the mortality at 1000 ppm is 90% and the mortality at 2000 ppm was 100%. Further, the LD50 in data set [3] (24 h) was found to be 50.1 mg/kg. In data set [4], the mortality at 200 ppm came out at 65%, the mortality at 400 ppm came out at 90% and the mortality at 800 ppm amounted to 100%.

Take `CCOC(=O)CN(C)SN(C)C(=O)Oc1cccc2c1OC(C)(C)C2` [Example 14, 2,3-Dihydro-2,2-dimethylbenzofuran-7-yl N-(N-methyl-N-ethoxycarbonylmethylaminosulfenyl)-N-methylcarbamate]: in data set [1], the LD50 at 168 h is 120 mg/kg. In data set [2], this compound came in with a mortality at 500 ppm of 75%, a mortality at 1000 ppm of 90% and a mortality at 2000 ppm of 100%. The compound further showed an LD50 in data set [3] (24 h) of 9.9 mg/kg. Also, in data set [4], the mortality at 200 ppm was 65%, the mortality at 400 ppm was determined as 90% and the mortality at 800 ppm is 100%.

Consider `Cc1ccc(N(CC#N)SN(C)C(=O)Oc2cccc3c2OC(C)(C)C3)cc1` [Example 36], for which the LD50 at 168 h in data set [1] came out at 70 mg/kg. Also, in data set [2], the mortality at 500 ppm came out at 65%, the mortality at 1000 ppm was 80% and the mortality at 2000 ppm came to 100%. This compound also showed an LD50 in data set [3] (24 h) of 59.3 mg/kg. In data set [4], this compound displayed a mortality at 200 ppm of 60%, a mortality at 400 ppm of 75% and a mortality at 800 ppm of 95%.

In data set [1], `CN(SN(CC(=O)OC1CCCCC1)CC(=O)OC1CCCCC1)C(=O)Oc1cccc2c1OC(C)(C)C2` [Example 5] had an LD50 at 168 h of 90 mg/kg. In data set [2], this compound returned a mortality at 500 ppm of 65%, a mortality at 1000 ppm of 80% and a mortality at 2000 ppm of 100%. Moreover, in data set [3] (24 h), the LD50 worked out at 75.6 mg/kg. In data set [4], this compound registered a mortality at 200 ppm of 45%, a mortality at 400 ppm of 80% and a mortality at 800 ppm of 100%.

Turning to `CCOC(=O)CCN(SN(C)C(=O)Oc1cccc2c1OC(C)(C)C2)C(=O)OCC` [Example 52], in data set [1], the LD50 at 168 h worked out at 125 mg/kg. Further, in data set [2], the mortality at 500 ppm worked out at 70%, the mortality at 1000 ppm came to 85% and the mortality at 2000 ppm came to 100%. The compound also returned an LD50 in data set [3] (24 h) of 54.3 mg/kg. Also, in data set [4], the mortality at 200 ppm was 65%, the mortality at 400 ppm stood at 85% and the mortality at 800 ppm was 100%.

On to `CCCCCCN(CCC(=O)OCC)SN(C)C(=O)Oc1cccc2c1OC(C)(C)C2` [Example 31], for which the LD50 at 168 h in data set [1] amounted to 135 mg/kg. Moreover, in data set [2], the mortality at 500 ppm amounted to 60%, the mortality at 1000 ppm is 80% and the mortality at 2000 ppm is 100%. For the same compound, in data set [3] (24 h), the LD50 is 33.1 mg/kg. In data set [4], this compound came in with a mortality at 200 ppm of 55%, a mortality at 400 ppm of 75% and a mortality at 800 ppm of 100%.

Take `CCCCCCCCN(CC(=O)OCC)SN(C)C(=O)Oc1cccc2c1OC(C)(C)C2` [Example 17]: the LD50 at 168 h in data set [1] amounted to 69 mg/kg. Also, in data set [2], the mortality at 500 ppm was 60%, the mortality at 1000 ppm is 80% and the mortality at 2000 ppm worked out at 100%. Besides, in data set [3] (24 h), the LD50 is 42.3 mg/kg. In data set [4], this compound returned a mortality at 200 ppm of 55%, a mortality at 400 ppm of 75% and a mortality at 800 ppm of 95%.

On to `CCOC(=O)CN(SN(C)C(=O)Oc1cccc2c1OC(C)(C)C2)C(=O)OC` [Example 49], for which the 50% lethal dose (LD50) at 168 h in data set [1] came to 105 mg/kg. For the same compound, in data set [2], the mortality at 500 ppm is 75%, the mortality at 1000 ppm was determined as 90% and the mortality at 2000 ppm came to 100%. For the same compound, the LD50 in data set [3] (24 h) was determined as 15.7 mg/kg. In data set [4], this compound returned a mortality at 200 ppm of 70%, a mortality at 400 ppm of 90% and a mortality at 800 ppm of 100%.

For `CCOC(=O)CN(SN(C)C(=O)Oc1cccc2c1OC(C)(C)C2)C(=O)c1ccccc1` [Example 46], the LD50 at 168 h in data set [1] is 105 mg/kg. In data set [2], this compound returned a mortality at 500 ppm of 70%, a mortality at 1000 ppm of 85% and a mortality at 2000 ppm of 100%. Moreover, in data set [3] (24 h), the LD50 amounted to 33.2 mg/kg. In data set [4], this compound came in with a mortality at 200 ppm of 65%, a mortality at 400 ppm of 85% and a mortality at 800 ppm of 100%.

Consider `CCOC(=O)CN(SN(C)C(=O)Oc1cccc2c1OC(C)(C)C2)S(=O)(=O)c1ccc(C)cc1` [Example 48], for which, in data set [1], the median lethal dose (LD50) at 168 h was 80 mg/kg. In data set [2], this compound yielded a mortality at 500 ppm of 65%, a mortality at 1000 ppm of 80% and a mortality at 2000 ppm of 100%. The same compound returned an LD50 in data set [3] (24 h) of 58.6 mg/kg. In data set [4], this compound showed a mortality at 200 ppm of 60%, a mortality at 400 ppm of 75% and a mortality at 800 ppm of 95%.

`CCOC(=O)CN(SN(C)C(=O)Oc1cccc2c1OC(C)(C)C2)C(=O)CC` [Example 43, 2,3-dihydro-2,2-dimethylbenzofuran-7-yl N-(N-propionyl-N-ethoxycarbonylmethylaminosulfenyl)-N-methyl-carbamate] had an LD50 at 168 h in data set [1] of 43 mg/kg. For the same compound, in data set [2], the mortality at 500 ppm amounted to 70%, the mortality at 1000 ppm is 85% and the mortality at 2000 ppm is 100%. Besides, the LD50 in data set [3] (24 h) turned out to be 14.4 mg/kg. In data set [4], this compound returned a mortality at 200 ppm of 60%, a mortality at 400 ppm of 85% and a mortality at 800 ppm of 100%.

Compound `CC(C)N(CCC#N)SN(C)C(=O)Oc1cccc2c1OC(C)(C)C2` [Example 38] yielded an LD50 at 168 h in data set [1] of 125 mg/kg. In addition, in data set [2], the mortality at 500 ppm is 75%, the mortality at 1000 ppm came to 90% and the mortality at 2000 ppm amounted to 100%. Also, the LD50 in data set [3] (24 h) came to 17.5 mg/kg. In data set [4], this compound yielded a mortality at 200 ppm of 70%, a mortality at 400 ppm of 90% and a mortality at 800 ppm of 100%.

In the case of `CCOC(=O)CN(SN(C)C(=O)Oc1cccc2c1OC(C)(C)C2)C(C)C` [Example 15], the LD50 at 168 h in data set [1] is 110 mg/kg. In data set [2], this compound returned a mortality at 500 ppm of 75%, a mortality at 1000 ppm of 90% and a mortality at 2000 ppm of 100%. The LD50 in data set [3] (24 h) was 33 mg/kg. In data set [4], this compound came in with a mortality at 200 ppm of 65%, a mortality at 400 ppm of 90% and a mortality at 800 ppm of 100%.

With `CCOC(=O)CN(Cc1ccc(Cl)cc1)SN(C)C(=O)Oc1cccc2c1OC(C)(C)C2` [Example 20], in data set [1], the LD50 at 168 h turned out to be 75 mg/kg. Also, in data set [2], the mortality at 500 ppm was found to be 65%, the mortality at 1000 ppm amounted to 85% and the mortality at 2000 ppm is 100%. The compound further showed a 50% lethal dose (LD50) in data set [3] (24 h) of 61.9 mg/kg. For the same compound, in data set [4], the mortality at 200 ppm was determined as 60%, the mortality at 400 ppm was 80% and the mortality at 800 ppm stood at 100%.

With `CNC(=O)Oc1cccc2ccccc12` [1-Naphthyl-N--methyl-carbamate, reference compound], in data set [2], the mortality at 500 ppm is 60%, the mortality at 1000 ppm is 80% and the mortality at 2000 ppm is 100%.

Consider `CNC(=O)Oc1ccccc1OC(C)C` [2-Isopropoxyphenyl-N--methyl-carbamate, reference compound], for which, in data set [3] (house fly, locally applied in acetone, mortality 24 hours later, Probit method, read-out: LD50), the LD50 was 22.5 mg/kg. The mortality at 200 ppm in data set [4] (200 ppm active ingredient, from 50% wettable powder, three days later, read-out: Mortality) is 0%. In data set [4] (400 ppm active ingredient, from 50% wettable powder, three days later, read-out: Mortality), the mortality at 400 ppm turned out to be 0%. The mortality at 800 ppm in data set [4] (800 ppm active ingredient, from 50% wettable powder, three days later, read-out: Mortality) turned out to be 0%.

One may read the LD50 as the dose at which mortality reaches 50%. As usually defined, the mortality is the share of the test organisms that died.
